Values quoted from earlier work, collected in patent US7588929B2, “Production of bacteriophage compositions for use in phage therapy” (Phage Biopharm LLC, priority 2002, dated 2009).

Tested on: phage-2 inactivation by BI-LPS
Details: inactivation 95% in controls without sugar

O=CC[C@@H](O)[C@H](O)[C@H](O)CO [2-deoxy-D-glucose]
concentration reducing inactivation to 50%: 1 M

O=C[C@H](O)[C@@H](O)[C@@H](O)[C@H](O)CO [D-galactose]
concentration reducing inactivation to 50%: about 1.4 M

N[C@H]1C(O)O[C@H](CO)[C@@H](O)[C@@H]1O (stereo partly drawn) [D-glucosamine]
concentration reducing inactivation to 50%: 0.25-0.3 M

O=C[C@H](O)[C@@H](O)[C@H](O)[C@H](O)CO [D-glucose]
concentration reducing inactivation to 50%: 1 M

O=C[C@@H](O)[C@@H](O)[C@H](O)[C@H](O)CO [D-mannose]
concentration reducing inactivation to 50%: 1 M

O=C[C@H](O)[C@@H](O)[C@H](O)CO [D-xylose]
concentration reducing inactivation to 50%: about 1.4 M

C[C@H](O)[C@H](O)[C@@H](O)[C@@H](O)C=O [L-rhamnose]
concentration reducing inactivation to 50%: 1 M

CC(=O)N[C@H]1C(O)O[C@H](CO)[C@@H](O)[C@@H]1O (stereo partly drawn) [N-acetyl-D-glucosamine]
concentration reducing inactivation to 50%: about 1.4 M
